One data set concerns NF-κB. Kind of data set: NF-κB luciferase reporter assay in A549/NF-κBLuc cells stimulated with IL-1β. It is filed as cell-based, human. Particulars: Homo sapiens, A549, A549/NF-κBLuc cells; compound added 1 hour before IL-1β, then 3 hours incubation; luciferase activity; read-out: NF-κB Inhibitory Activity (IC50). In short, it runs like this:
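A549 cells stably carrying an NF-κB-driven luciferase reporter (pNFκB-Luc, G418-selected) pre-treated with compound for 1 h, then stimulated with IL-1β and incubated a further 3 h. Luciferase signal used to derive IC50 for NF-κB inhibition.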

Converted amounts (≈) assume the structure as drawn.

This note sets out measurements from patent publication US7064124B2, “NF-κB inhibitor containing substituted benzoic acid derivative as active ingredient” (Daiichi Suntory Pharma Co., Ltd., priority 2001, dated 2006).

By IC50 is commonly meant the concentration at which inhibition is half-maximal. Broadly, the melting point is the temperature, or range, at which the solid turns liquid. `COC1=C(OC)C(=O)C(Cc2ccc(O)c(C(=O)Nc3ccc(Cl)nc3)c2)=C(C)C1=O` [Example 185, N-(6-Chloropyridin-3-yl)-5-(5,6-dimethoxy-3-methyl-1,4-benzoquinon-2-yl)methyl-2-hydroxybenzamide] yielded a melting point of 166 to 169 °C. Further, in the data set on NF-κB, the IC50 stood at 11 µg/mL (≈ 24.8 µM).
The compound `COC1=C(OC)C(=O)C(Cc2ccc(OC(C)=O)c(C(=O)Nc3cccnc3Cl)c2)=C(C)C1=O` [Example 186, N-(2-Chloropyridin-3-yl)-5-(5,6-dimethoxy-3-methyl-1,4-benzoquinon-2-yl)methyl-2-acetoxybenzamide] came in with a melting point of 128.5 to 130 °C. The 50% inhibitory concentration (IC50) in the data set on NF-κB came out at 2 µg/mL (≈ 4.12 µM).
For the compound `COC1=C(OC)C(=O)C(Cc2ccc(O)c(C(=O)Nc3cccnc3Cl)c2)=C(C)C1=O` [Example 187, N-(2-Chloropyridin-3-yl)-5-(5,6-dimethoxy-3-methyl-1,4-benzoquinon-2-yl)methyl-2-hydroxybenzamide], the melting point lay in the range of 152 to 154 °C. Besides, the 50% inhibitory concentration (IC50) in the data set on NF-κB is 2 µg/mL (≈ 4.52 µM).
Taken in the same sequence, the figures for `COC1=C(OC)C(=O)C(Cc2ccc(OC(C)=O)c(C(=O)Nc3ccc(C(=O)OC(C)(C)C)cc3)c2)=C(C)C1=O` [Example 188, tert-Butyl N-[5-(5,6-dimethoxy-3-methyl-1,4-benzoquinon-2-yl)methyl-2-acetoxybenzoyl]-4-aminobenzoate] were 78.5 to 81 °C and 9 µg/mL (≈ 16.4 µM).
Taken in the same sequence, the figures for `COC1=C(OC)C(=O)C(Cc2ccc(O)c(C(=O)Nc3ccc([N+](=O)[O-])cc3)c2)=C(C)C1=O` [Example 191, N-[5-(5,6-Dimethoxy-3-methyl-1,4-benzoquinon-2-yl)methyl-2-hydroxybenzoyl]-4-nitroaniline] were 213.5 to 215.5 °C and 4 µg/mL (≈ 8.84 µM).
Taken in the same sequence, the figures for `COC1=C(OC)C(=O)C(Cc2ccc(OC(C)=O)c(C(=O)Nc3ccc(NC(=O)OC(C)(C)C)cc3)c2)=C(C)C1=O` [Example 199, N-[5-(5,6-Dimethoxy-3-methyl-1,4-benzoquinon-2-yl)methyl-2-acetoxybenzoyl]-4-(tert-butoxycarbonyl)aminoaniline] were 188.5 to 191 °C and 16 µg/mL (≈ 28.3 µM).
Compound `COC1=C(OC)C(=O)C(Cc2ccc(O)c(C(=O)Nc3ccc(NC(=O)OC(C)(C)C)cc3)c2)=C(C)C1=O` [Example 200, N-[5-(5,6-Dimethoxy-3-methyl-1,4-benzoquinon-2-yl)methyl-2-hydroxybenzoyl]-4-(tert-butoxycarbonyl)aminoaniline] had a melting point of 127 to 129 °C. The IC50 with NF-κB worked out at 17 µg/mL (≈ 32.5 µM).
In the same order, the values of `COC1=C(OC)C(=O)C(Cc2ccc(O)c(C(=O)Nc3cccnc3)c2)=C(C)C1=O.CS(=O)(=O)O` [Example 202, N-(Pyridin-3-yl)-5-(5,6-dimethoxy-3-methyl-1,4-benzoquinon-2-yl)methyl-2-hydroxybenzamide (methanesulfonate)] are 149.5 to 152 °C and 20 µg/mL.
In the same order, the values of `COC1=C(OC)C(=O)C(Cc2ccc(O)c(C(=O)Nc3ccncc3)c2)=C(C)C1=O.CS(=O)(=O)O` [Example 203, N-(Pyridin-4-yl)-5-(5,6-dimethoxy-3-methyl-1,4-benzoquinon-2-yl)methyl-2-hydroxybenzamide (methanesulfonate)] are 199.5 to 201.5 °C and 30 µg/mL.
In the same order, the values of `COC1=C(OC)C(=O)C(Cc2ccc(O)c(C(=O)Nc3ccc(N)cc3)c2)=C(C)C1=O.Cl` [Example 205, N-[5-(5,6-Dimethoxy-3-methyl-1,4-benzoquinon-2-yl)methyl-2-hydroxybenzoyl]-p-phenylenediamine (hydrochloride)] are 162 to 164 °C and 50 µg/mL.
`COC1=C(OC)C(=O)C(Cc2cccc(C(=O)Nc3cccnc3)c2O)=C(C)C1=O` [Example 207, N-(Pyridin-3-yl)-3-(5,6-dimethoxy-3-methyl-1,4-benzoquinon-2-yl)methyl-2-hydroxybenzamide] registered a melting point of 169 to 171 °C. Also, the IC50 in the data set with NF-κB came out at 98 µg/mL (≈ 240 µM).
As for `COC1=C(OC)C(=O)C(Cc2ccc(OC(C)=O)c(C(=O)Nc3ccc(-n4ccnc4)cc3)c2)=C(C)C1=O` [Example 208, N-[5-(5,6-Dimethoxy-3-methyl-1,4-benzoquinon-2-yl)methyl-2-acetoxybenzoyl]-4-(imidazol-1-yl)aniline], the melting point lay within 116.5 to 118.5 °C. Also, the IC50 in the data set on NF-κB amounted to 19 µg/mL (≈ 36.9 µM).
Taken in the same sequence, the figures for `COC1=C(OC)C(=O)C(Cc2ccc(O)c(C(=O)Nc3ccc(C(=O)OC(C)(C)C)cc3)c2)=C(C)C1=O` [Example 214, tert-Butyl N-[5-(5,6-dimethoxy-3-methyl-1,4-benzoquinon-2-yl)methyl-2-hydroxybenzoyl]-4-aminobenzoate] were 200.5 to 202 °C and 10 µg/mL (≈ 19.7 µM).
As to `COC1=C(OC)C(=O)C(Cc2ccc(O)c(C(=O)Nc3cccnc3OC)c2)=C(C)C1=O` [Example 216, N-(2-Methoxypyridin-3-yl)-5-(5,6-dimethoxy-3-methyl-1,4-benzoquinon-2-yl)methyl-2-hydroxybenzamide], the melting point fell in the range of 112 to 114 °C. Further, the IC50 in the data set with NF-κB came out at 10 µg/mL (≈ 22.8 µM).
In the same order, the values of `COC1=C(OC)C(=O)C(Cc2ccc(O)c(C(=O)Nc3cc(OC)ccc3OC)c2)=C(C)C1=O` [Example 220, N-[5-(5,6-Dimethoxy-3-methyl-1,4-benzoquinon-2-yl)methyl-2-hydroxybenzoyl]-2,5-dimethoxyaniline] are 130 to 132 °C and 66 µg/mL (≈ 141 µM).
In the same order, the values of `COC1=C(OC)C(=O)C(Cc2ccc(OC)c(C(=O)Nc3cccnc3Cl)c2)=C(C)C1=O` [Example 221, N-(2-Chloropyridin-3-yl)-5-(5,6-dimethoxy-3-methyl-1,4-benzoquinon-2-yl)methyl-2-methoxybenzamide] are 178 to 180 °C and 46 µg/mL (≈ 101 µM).
`COC1=C(OC)C(=O)C(Cc2ccc(O)c(C(=O)Nc3cccnc3N3CCOCC3)c2)=C(C)C1=O` [Example 223, N-(2-Morpholinopyridin-3-yl)-5-(5,6-dimethoxy-3-methyl-1,4-benzoquinon-2-yl)methyl-2-hydroxybenzamide] registered a melting point of 210 to 212.5 °C. Moreover, the IC50 in the data set on NF-κB worked out at 81 µg/mL (≈ 164 µM).
Taken in the same sequence, the figures for `COC1=C(OC)C(=O)C(Cc2ccc(O)c(C(=O)Nc3ccc(N4CCOCC4)nc3)c2)=C(C)C1=O` [Example 225, N-(6-Morpholinopyridin-3-yl)-5-(5,6-dimethoxy-3-methyl-1,4-benzoquinon-2-yl)methyl-2-hydroxybenzamide] were 102.5 to 105 °C and 24 µg/mL (≈ 48.6 µM).
Taken in the same sequence, the figures for `COC1=C(OC)C(=O)C(Cc2ccc(O)c(C(=O)Nc3ccnc(Cl)c3)c2)=C(C)C1=O` [Example 227, N-(2-Chloropyridin-4-yl)-5-(5,6-dimethoxy-3-methyl-1,4-benzoquinon-2-yl)methyl-2-hydroxybenzamide] were 142 to 144 °C and 20 µg/mL (≈ 45.2 µM).
In the same order, the values of `COC1=C(OC)C(=O)C(Cc2ccc(OC(C)=O)c(C(=O)Nc3cc(OC)ncn3)c2)=C(C)C1=O` [Example 228, N-(6-Methoxypyrimidin-4-yl)-5-(5,6-dimethoxy-3-methyl-1,4-benzoquinon-2-yl)methyl-2-acetoxybenzamide] are 138.5 to 141 °C and 64 µg/mL (≈ 133 µM).
Regarding `COC1=C(OC)C(=O)C(Cc2ccc(O)c(C(=O)Nc3cc(OC)ncn3)c2)=C(C)C1=O` [Example 229, N-(6-Methoxypyrimidin-4-yl)-5-(5,6-dimethoxy-3-methyl-1,4-benzoquinon-2-yl)methyl-2-hydroxybenzamide], the melting point fell in the range of 209.5 to 211.5 °C. For the same compound, the IC50 with NF-κB came to 59 µg/mL (≈ 134 µM).
In the same order, the values of `CC1=C(C)C(=O)C(Cc2ccc(O)c(C(=O)Nc3ccc(C(F)(F)F)cc3)c2)=C(C)C1=O` [Example 235, N-[5-(3,5,6-Trimethyl-1,4-benzoquinon-2-yl)methyl-2-hydroxybenzoyl]-4-trifluoromethylaniline] are 233 to 235 °C and 5 µg/mL (≈ 11.3 µM).
Taken in the same sequence, the figures for `CC1=C(C)C(=O)C(Cc2ccc(O)c(C(=O)Nc3cccnc3Cl)c2)=C(C)C1=O` [Example 237] were 199 to 201 °C and 5 µg/mL (≈ 12.2 µM).
